Laboratory results published in the supplement of paper PMC9103864.

Experiments:
[1] = tested on: BMSC (primary human bone marrow mesenchymal stromal cells); experiment: drug sensitivity score (DSS); higher = more sensitive
[2] = tested on: BMSC (primary human bone marrow mesenchymal stromal cells); experiment: absolute EC50 for viability; higher = less sensitive

| Structure (SMILES) | drug sensitivity score [1] | absolute EC50 for viability [2] |
| --- | --- | --- |
| COc1cccc2c1C(=O)c1c(O)c3c(c(O)c1C2=O)C[C@@](O)(C(C)=O)C[C@@H]3O[C@H]1C[C@H](N)[C@H](O)[C@H](C)O1 [Daunorubicin] | 5.6 | 356 nM |
| CC[C@@](C)(Nc1ccnc(-c2c[nH]c3ncccc23)n1)C(=O)NCC(F)(F)F [Decernotinib] | 0.4 | > 10000 nM |
| Nc1ncn([C@H]2C[C@H](O)[C@@H](CO)O2)c(=O)n1 [Decitabine] | 0 | > 10000 nM |
| CC(=O)N(O)CCCCCNC(=O)CCC(=O)N(O)CCCCCNC(=O)CCC(=O)N(O)CCCCCN [Deferoxamine] | 0 | > 10000 nM |
| C[C@@H]1C[C@H]2[C@@H]3CCC4=CC(=O)C=C[C@]4(C)[C@@]3(F)[C@@H](O)C[C@]2(C)[C@@]1(O)C(=O)CO [Dexamethasone] | 0 | > 10000 nM |
| C[C@H]1O[C@@H](O[C@H]2[C@@H](O)C[C@H](O[C@H]3[C@@H](O)C[C@H](O[C@H]4CC[C@@]5(C)[C@H](CC[C@@H]6[C@@H]5C[C@@H](O)[C@]5(C)[C@@H](C7=CC(=O)OC7)CC[C@]65O)C4)O[C@@H]3C)O[C@@H]2C)C[C@H](O)[C@@H]1O [Digoxin] | 13.7 | 52.9 nM |
| CCc1cnn2c(NCc3ccc[n+]([O-])c3)cc(N3CCCC[C@H]3CCO)nc12 [Dinaciclib] | 8.1 | > 1000 nM |
| CCN(CC)C(=S)SSC(=S)N(CC)CC [Disulfiram] | 0 | > 50000 nM |
| CC(=O)O[C@@]12CO[C@@H]1C[C@H](O)[C@@]1(C)C(=O)[C@H](O)C3=C(C)[C@@H](OC(=O)[C@H](O)[C@@H](NC(=O)OC(C)(C)C)c4ccccc4)C[C@@](O)([C@@H](OC(=O)c4ccccc4)[C@H]21)C3(C)C [Docetaxel] | 5 | > 1000 nM |
| Cc1ccc(-n2nc(C(C)(C)C)cc2NC(=O)Nc2ccc(OCCN3CCOCC3)c3ccccc23)cc1 [Doramapimod] | 1 | > 10000 nM |
| CN1CCN(c2ccc3nc(-c4c(N)c5c(F)cccc5[nH]c4=O)[nH]c3c2)CC1 [Dovitinib] | 0.9 | > 10000 nM |
| COc1cccc2c1C(=O)c1c(O)c3c(c(O)c1C2=O)C[C@@](O)(C(=O)CO)C[C@@H]3O[C@H]1C[C@H](N)[C@H](O)[C@H](C)O1 [Doxorubicin] | 6.8 | 219 nM |
| C[C@H](Nc1ncnc2nc[nH]c12)c1cc2cccc(Cl)c2c(=O)n1-c1ccccc1 [Duvelisib] | 0.6 | > 500 nM |
| Cc1ccc(NS(=O)(=O)c2cccc(C#N)c2)c2[nH]cc(C#N)c12 [E7820] | 0 | > 50000 nM |
| Cc1cc(Nc2cc(N3CCN(C)CC3)nc(/C=C/c3ccccc3)n2)n[nH]1 [ENMD-2076] | 11.5 | 897 nM |
| Cc1cc(C)c(CNC(=O)c2cc(-c3ccc(CN4CCOCC4)cc3)cc3c2cnn3C2CCCC2)c(=O)[nH]1 [EPZ-5687] | 0 | 9930 nM |
| NC(=O)/C(=C/n1cnc(-c2cc(C(F)(F)F)cc(C(F)(F)F)c2)n1)c1cncnc1 [Eltanexor] | 9.6 | > 10000 nM |
| CC(C)(O)CNc1nc(Nc2ccnc(C(F)(F)F)c2)nc(-c2cccc(C(F)(F)F)n2)n1 [Enasidenib] | 0 | > 10000 nM |
| COC(=O)N[C@@H](C)CNc1nccc(-c2cn(C(C)C)nc2-c2cc(Cl)cc(NS(C)(=O)=O)c2F)n1 [Encorafenib] | 0 | > 1000 nM |
| Nc1ccccc1NC(=O)c1ccc(CNC(=O)OCc2cccnc2)cc1 [Entinostat] | 3.5 | > 10000 nM |
| c1cn2cc(-c3ccc4cn[nH]c4c3)nc(Nc3ccc(N4CCOCC4)cc3)c2n1 [Entospletinib] | 0 | > 5000 nM |
| CN1CCN(c2ccc(C(=O)Nc3n[nH]c4ccc(Cc5cc(F)cc(F)c5)cc34)c(NC3CCOCC3)c2)CC1 [Entrectinib] | 0.8 | > 1000 nM |
| CNC(=O)c1ccc(N2C(=S)N(c3ccc(C#N)c(C(F)(F)F)c3)C(=O)C2(C)C)cc1F [Enzalutamide] | 0 | > 10000 nM |
| Cn1cc(C2=C(c3cn(C4CCN(Cc5ccccn5)CC4)c4ccccc34)C(=O)NC2=O)c2ccccc21 [Enzastaurin] | 0 | > 10000 nM |
| NS(=O)(=O)NCCNc1nonc1/C(=N/O)Nc1ccc(F)c(Br)c1 [Epacadostat] | 0 | > 10000 nM |
| COc1cccc2c1C(=O)c1c(O)c3c(c(O)c1C2=O)C[C@@](O)(C(=O)CO)C[C@@H]3O[C@H]1C[C@H](N)[C@@H](O)[C@H](C)O1 [Epirubicin] | 6.4 | 249 nM |
| CCOc1ccccc1-n1c(C(C)N2CCN(C(=O)COc3ccc(Cl)cc3)CC2)nc2ccccc2c1=O (stereo not drawn) [Erastin] | 2.1 | > 10000 nM |

| Structure (SMILES) | drug sensitivity score [1] | absolute EC50 for viability [2] |
| --- | --- | --- |
| COc1cc(OC)cc(N(CCNC(C)C)c2ccc3ncc(-c4cnn(C)c4)nc3c2)c1 [Erdafitinib] | 2.2 | > 1000 nM |
| C=C1C[C@@H]2CC[C@@]34C[C@H]5O[C@H]6[C@@H](O3)[C@H]3O[C@H](CC[C@@H]3O[C@H]6[C@H]5O4)CC(=O)C[C@@H]3[C@@H](OC)[C@@H](C[C@H](O)CN)O[C@H]3C[C@H]3O[C@@H](CC[C@@H]1O2)C[C@@H](C)C3=C [Eribulin] | 12 | > 1000 nM |
| C#Cc1cccc(Nc2ncnc3cc(OCCOC)c(OCCOC)cc23)c1 [Erlotinib] | 1.5 | > 10000 nM |
| COc1cc([C@@H]2c3cc4c(cc3[C@@H](O[C@@H]3O[C@@H]5CO[C@@H](C)O[C@H]5[C@H](O)[C@H]3O)[C@H]3COC(=O)[C@H]23)OCO4)cc(OC)c1O [Etoposide] | 0 | > 10000 nM |
| CO[C@H]1C[C@@H]2CC[C@@H](C)[C@@](O)(O2)C(=O)C(=O)N2CCCC[C@H]2C(=O)O[C@H]([C@H](C)C[C@@H]2CC[C@@H](OCCO)[C@H](OC)C2)CC(=O)[C@H](C)/C=C(\C)[C@@H](O)[C@@H](OC)C(=O)[C@H](C)C[C@H](C)/C=C/C=C/C=C/1C [Everolimus] | 5.2 | > 100 nM |
| C=C1C[C@@H]2[C@H](CC[C@]3(C)C(=O)CC[C@@H]23)[C@@]2(C)C=CC(=O)C=C12 [Exemestane] | 0 | > 10000 nM |
| Cc1cnc(Nc2ccc(OCCN3CCCC3)cc2)nc1Nc1cccc(S(=O)(=O)NC(C)(C)C)c1 [Fedratinib] | 9.3 | 1470 nM |
| CON(C)C(=O)N1N=C(c2cc(F)ccc2F)S[C@@]1(CCCN)c1ccccc1 [Filanesib] | 0 | > 1000 nM |
| O=C(Nc1nc2cccc(-c3ccc(CN4CCS(=O)(=O)CC4)cc3)n2n1)C1CC1 [Filgotinib] | 2.3 | > 10000 nM |
| CC(C)(C)NC(=O)[C@H]1CC[C@H]2[C@@H]3CC[C@H]4NC(=O)C=C[C@]4(C)[C@H]3CC[C@]12C [Finasteride] | 0 | > 10000 nM |
| CCCCCCCCc1ccc(CCC(N)(CO)CO)cc1 [Fingolimod] | 5.8 | 3020 nM |
| O=c1[nH]c(=O)n([C@H]2C[C@H](O)[C@@H](CO)O2)cc1F [Floxuridine] | 0 | > 10000 nM |
| O=c1[nH]cc(F)c(=O)[nH]1 [Fluorouracil] | 0.9 | > 10000 nM |
| CC(C)C(=O)Nc1ccc([N+](=O)[O-])c(C(F)(F)F)c1 [Flutamide] | 0 | > 10000 nM |
| COc1cc2c(Oc3ccc(NC(=O)C4(C(=O)Nc5ccc(F)cc5)CC4)cc3F)ccnc2cc1OCCCN1CCOCC1 [Foretinib] | 6 | 460 nM |
| COc1cc(Nc2ncc(F)c(Nc3ccc4c(n3)N(COP(=O)(O)O)C(=O)C(C)(C)O4)n2)cc(OC)c1OC [Fostamatinib] | 5.2 | > 2500 nM |
| C[C@]12CC[C@@H]3c4ccc(O)cc4C[C@@H](CCCCCCCCC[S+]([O-])CCCC(F)(F)C(F)(F)F)[C@H]3[C@@H]1CC[C@@H]2O (stereo partly drawn) [Fulvestrant] | 0 | > 1000 nM |
| CC1(C)OCCn2c1nc1c(N3CCOCC3)nc(-c3cnc(N)nc3)nc12 [GDC-0084] | 13.2 | 644 nM |
| O=C(NOCCO)c1ccc2cncn2c1Nc1ccc(I)cc1F [GDC-0623] | 0 | > 2500 nM |
| C[C@H]1CN(C2COC2)CCN1c1ccc(Nc2cc(-c3ccnc(N4CCn5c(cc6c5CC(C)(C)C6)C4=O)c3CO)cn(C)c2=O)nc1 [GDC-0853] | 0 | > 1000 nM |
| CNc1nc(Nc2cn(C(C)(C)C#N)nc2C)ncc1C(F)(F)F [GNE-0877] | 0 | > 1000 nM |
| CCNc1nc(Nc2cc(F)c(C(=O)N3CCOCC3)cc2OC)ncc1C(F)(F)F [GNE-7915] | 0 | > 1000 nM |
| CCCc1cc(C)[nH]c(=O)c1CNC(=O)c1cc(-c2ccnc(N3CCN(C)CC3)c2)cc2c1cnn2C(C)C [GSK343] | 0 | > 1000 nM |
| CCCOc1ccn2c(C(C)=O)cc(-c3ccccc3S(C)(=O)=O)c2c1 [GSK2801] | 0 | > 10000 nM |
| CCOC(=O)CCNc1cc(N2CCc3ccccc3CC2)nc(-c2ccccn2)n1 [GSK-J4] | 2.8 | 73000 nM |
| C[C@@H]1C=C2C(=O)O[C@@H]3CC[C@H](C1)[C@]23O [Galiellalactone] | 1.3 | > 25000 nM |
| Cc1cccc(-c2nn3c(c2-c2ccnc4ccc(C(N)=O)cc24)CCC3)n1 [Galunisertib] | 0 | > 1000 nM |
